Measurements taken from publication PMC11791199 (Scientific Reports, 2025).
Entries after “also recorded” stand apart in the source; their conditions may differ.

Key:
ClpC1 NTD K85A mutant = ClpC1 NTD K85A mutant (Mycobacterium tuberculosis, UniProt P9WPC9, K85A); assay type: binding
ClpC1 NTD F80A mutant = ClpC1 NTD F80A mutant (Mycobacterium tuberculosis, UniProt P9WPC9, F80A); assay type: binding

For `CC1=C[C@@H](/C=C(\Cl)c2ccc(C(=O)O)cc2)[C@]2(C(=O)O)C=C[C@@H](CCOC(=O)c3ccc(NCc4ccccc4)cc3)C[C@@H]2C1` [F5, (2R,4aR,5S,8aR)-2-(2-((4-(benzylamino)benzoyl)oxy)ethyl)-5-((Z)-2-(4-carboxyphenyl)-2-chlorovinyl)-7-methyl-1,5,8,8a-tetrahydronaphthalene-4a(2H)-carboxylic acid], the “binding by ITC” value (ClpC1 NTD K85A mutant) was “no binding could be observed; also recorded: no binding was observed” and the “binding by ITC” value (ClpC1 NTD F80A mutant) was “no binding could be observed; also recorded: no binding was observed”.
